The record followed here is paper PMC2668518 (Bioconjugate chemistry, 2009).

The nature of the data set: Biodistribution of radiolabeled closo-borate. The data set is classed as in vivo, Male athymic mice (nu/nu). As to conditions: mice; for tissue(s) with the highest concentration of radionuclide: 1 and 4 h pi; for concentration in urine: 1 h pi, urine at sacrifice; for route of excretion: inferred from tissue distribution at 1 and 4 h pi; for concentration in kidney: injected via lateral tail vein.

[Et3NH]2B10H8I-CONHpropyl [[^125I]1e]: the “tissue(s) with the highest concentration of radionuclide” value (“tissue(s)” below) is reported as “kidney”, the concentration in urine amounted to 320 ± 135 %ID/g and the route of excretion entry was “renal clearance”. The concentration in kidney (1 h post injection) amounted to 6.6 %ID/g. Under “4 h post injection”, the concentration in kidney is given as 0.27 %ID/g.

As for “[Et3NH]2B12H10At-CONHpropyl [[^211At]2c]”, the “tissue(s)” value is “kidney” and the route of excretion entry is given as “kidney”.

[Et3NH]2B12H10I-CONHpropyl [[^125I]2b]: the “tissue(s)” value was “kidney” and the route of excretion entry is listed as “kidney”. The concentration in kidney (1 h post injection) was 19.8 %ID/g. The concentration in kidney (4 h post injection) is 26.5 %ID/g.

Take [nBu4N]2B10H8At-CONHpropyl [[^211At]1c]: the “tissue(s)” value was “liver and intestines”; the concentration in urine turned out to be 33.11 ± 14.06 %ID/g.

Take [nBu4N]2B10H8I-CONHpropyl [[^125I]1b]: the “tissue(s)” value was “liver and intestines”; the concentration in urine amounted to 174.43 ± 90.33 %ID/g; the route of excretion entry is “hepatobiliary rather than renal”.
